Measured values: article PMC6792352, “Limited Chemical Structural Diversity Found to Modulate Thyroid Hormone Receptor in the Tox21 Chemical Library” (Environmental Health Perspectives, 2019)
Counter-ions that a name gives are not always drawn. Positions of bridges follow the written chain, without caps; N, C: chain ends. Non-standard residues stand in square brackets, D forms with d. Residues, ends and D or L forms follow the SMILES beside them. hArg = N=C(N)NCCCC[C@H](N)C(=O)O; Mpa = O=C(O)CCS

Assay: in vitro
Settings: rat, gh3-tre-luc cells, AC50 (uM) modified / 1000

CC(C)=CCCC(C)CC=O (stereo not shown) [Citronellal] and CC(C)CCCC(=O)O [5-Methylhexanoic acid] cannot be ordered by CC50 at 24 h: over 90 µM for the first, over 90 µM for the second.

O=C(COP(=O)(O)O)[C@@H](O)[C@H](O)[C@H](O)COP(=O)(O)O [D-Fructose 1,6-bisphosphate trisodium] and OC[C@@H](O)[C@@H](O[C@@H]1O[C@H](CO)[C@H](O)[C@H](O)[C@H]1O)[C@H](O)[C@@H](O)CO [D-Lactitol monohydrate] cannot be ordered by CC50 at 24 h: over 50 µM for the first, over 90 µM for the second.

First: O=C(Oc1ccccc1)c1ccccc1C(=O)Oc1ccccc1 [Diphenyl phthalate]
Second: c1ccc2cc3c4ccccc4c4ccccc4c3cc2c1 [Dibenz[a,c]anthracene]
The CC50 at 24 h of the first is lower: 53.7 µM for the first, over 90 µM for the second.

Cc1cc(-n2nc3ccc(Cl)cc3n2)c(O)c(C(C)(C)C)c1 [Bumetrizole] and CN1C(=O)CN2CCc3ccccc3C2c2cc(Cl)ccc21 (stereo not shown) [Clazolam] cannot be ordered by CC50 at 24 h: over 50 µM for the first, over 50 µM for the second.

O=C(O)Cc1c(Cl)ccc(Cl)c1Cl [Chlorfenac] and O=C(Nc1ccc(Cl)c(Cl)c1)C1CC1 [Cypromid] cannot be ordered by CC50 at 24 h: over 90 µM for the first, over 50 µM for the second.

O=C(O)c1ccccc1C(=O)Nc1ccc(S(=O)(=O)Nc2nccs2)cc1 [Phthalylsulfathiazole] and CCOC(=O)OC(C)OC1=C(C(=O)Nc2ccccn2)N(C)S(=O)(=O)c2ccccc21 (stereo not shown) [Ampiroxicam] cannot be ordered by CC50 at 24 h: over 50 µM for the first, over 50 µM for the second.

NCCCC[C@H](N[C@@H](CCc1ccccc1)C(=O)O)C(=O)N1CCC[C@H]1C(=O)O [Lisinopril dihydrate] and CC(=O)CCc1ccccc1 [Benzylacetone] cannot be ordered by CC50 at 24 h: over 20 µM for the first, over 90 µM for the second.

CCC(O)C(C)(C)C (stereo not shown) [2,2-Dimethyl-3-pentanol] and C[C@@H](O)[C@@H](C)O [2,3-Butanediol] cannot be ordered by CC50 at 24 h: over 90 µM for the first, over 100 µM for the second.

NC(=O)/N=N/C(N)=O [Azodicarbonamide] and NC(=O)CCCCC(N)=O [Adipamide] cannot be ordered by CC50 at 24 h: over 90 µM for the first, over 90 µM for the second.

CC(O)c1ccccc1 (stereo not drawn) [alpha-Methylbenzyl alcohol] and CCNC(=O)[C@@H](C)OC(=O)Nc1ccccc1 [Carbetamide] cannot be ordered by CC50 at 24 h: over 90 µM for the first, over 90 µM for the second.

Cc1[nH]c(=O)c(C#N)cc1-c1ccc2nccn2c1 [Olprinone hydrochloride] and Cc1ccccc1C#N [2-Tolunitrile] cannot be ordered by CC50 at 24 h: over 50 µM for the first, over 90 µM for the second.

N#Cc1ccccc1O [2-Hydroxybenzonitrile] and N#Cc1ccc(C(=O)O)cc1 [4-Cyanobenzoic acid] cannot be ordered by CC50 at 24 h: over 90 µM for the first, over 90 µM for the second.

Going from CCCCCCCC/C=C\CCCCCCCC(=O)OCCOC(=O)CCCCCCC/C=C\CCCCCCCC [Polyethylene glycol dioleate] to CCCCCCCC[N+](CCCCCCCC)(CCCCCCCC)CCCCCCCC [Tetra-N-octylammonium bromide], the CC50 at 24 h falls from over 100 µM to 2.56 µM.

COC(=O)COc1ccc(Cl)cc1Cl [2,4-D-methyl] and CCc1ccc(O)c(OC)c1 [4-Ethyl-2-methoxyphenol] cannot be ordered by CC50 at 24 h: over 90 µM for the first, over 90 µM for the second.

CCOC(=O)C1=C(C)NC(C)=C(C(=O)OC)C1c1cccc([N+](=O)[O-])c1 (stereo not shown) [Nitrendipine] and Cc1ccc([N+](=O)[O-])cc1S(=O)(=O)O [2-Methyl-5-nitrobenzenesulfonic acid] cannot be ordered by CC50 at 24 h: over 50 µM for the first, over 90 µM for the second.

First: CN1CCCC(n2nc(Cc3ccc(Cl)cc3)c3ccccc3c2=O)CC1 (stereo not shown) [Azelastine hydrochloride]
Second: CN1CCN(C2Cc3ccccc3Sc3ccc(Cl)cc32)CC1 (stereo not shown) [Octoclothepine maleate]
The CC50 at 24 h of the first is 1.7-fold higher: 12.6 µM for the first, 7.55 µM for the second.

CCn1cc(C(=O)O)c(=O)c2ccc(C)nc21 [Nalidixic acid] and CSc1ccc(C(=O)c2[nH]c(=O)[nH]c2C)cc1 [Enoximone] cannot be ordered by CC50 at 24 h: over 90 µM for the first, over 50 µM for the second.

COC(=O)[C@@H](N)CS [Methyl L-cysteinate hydrochloride] and CCOC(=O)[C@@H](N)CS [Ethyl L-cysteinate hydrochloride] cannot be ordered by CC50 at 24 h: over 50 µM for the first, over 50 µM for the second.

N=C(N)NCCCC[C@@H]1NC(=O)CCSSC[C@@H](C(N)=O)NC(=O)[C@@H]2CCCN2C(=O)[C@H](Cc2c[nH]c3ccccc23)NC(=O)[C@H](CC(=O)O)NC(=O)CNC1=O [Eptifibatide] ([Mpa][hArg]GDWPC-NH2; disulfide 1-7) and O=C(NCCc1c[nH]c2ccccc12)c1cccnc1 [Nicotredole] cannot be ordered by CC50 at 24 h: over 50 µM for the first, over 50 µM for the second.

First: O=C1c2c(O)ccc([N+](=O)[O-])c2C(=O)c2c([N+](=O)[O-])ccc(O)c21 [1,8-Dihydroxy-4,5-dinitroanthraquinone]
Second: CN1CCC(=C2c3ccccc3CC(=O)c3sccc32)CC1 [Ketotifen]
The CC50 at 24 h of the first is 1.9-fold lower: 8.27 µM for the first, 16 µM for the second.

Compared with c1ccc2cc3ccccc3cc2c1 [Anthracene], NNc1nc(-c2ccccc2)cs1 [2-Hydrazino-4-phenylthiazole] is lower in CC50 at 24 h: over 90 µM for the first, 47 µM for the second.

C#C[C@]1(O)CC[C@H]2[C@@H]3CCC4=CCCC[C@@H]4[C@H]3C(=C)C[C@@]21CC [Desogestrel] and C=CC[C@]1(O)CC[C@H]2[C@@H]3CCC4=CCCC[C@@H]4[C@H]3CC[C@@]21C [Allylestrenol] are within 1.5-fold of each other in CC50 at 24 h: 34.9 µM for the first, 41.6 µM for the second.

Compared with COc1ccc(-c2ccc3cc(C(=O)O)ccc3c2)cc1[C@]12C[C@H]3C[C@H](C[C@H](C3)C1)C2 [Adapalene], COc1ccc2cc1Oc1ccc(cc1)C[C@H]1c3c(cc4c(c3Oc3cc5c(cc3OC)CCN(C)[C@@H]5C2)OCO4)CCN1C [Cepharanthine] is 6.5-fold higher in CC50 at 24 h: 1.88 µM for the first, 12.3 µM for the second.

Compared with CNCc1cc(F)ccc1Oc1ccc(Cl)c(Cl)c1 [CP-607366], Cc1ccccc1OCC(O)CNCCOc1ccc(C(N)=O)cc1 (stereo not shown) [Tolamolol] is 5.8-fold lower in CC50 at 24 h: 77.7 µM for the first, 13.4 µM for the second.

CCCCOCC(C)OCC(C)O (stereo not shown) [1-(2-Butoxy-1-methylethoxy)propan-2-ol] and COCCCOCCCOC [Dipropylene glycol dimethyl ether] cannot be ordered by CC50 at 24 h: over 90 µM for the first, over 90 µM for the second.

OC[C@H]1O[C@@H]2O[C@H]3[C@H](O)[C@@H](O)[C@@H](O[C@H]4[C@H](O)[C@@H](O)[C@@H](O[C@H]5[C@H](O)[C@@H](O)[C@@H](O[C@H]6[C@H](O)[C@@H](O)[C@@H](O[C@H]7[C@H](O)[C@@H](O)[C@@H](O[C@H]8[C@H](O)[C@@H](O)[C@@H](O[C@H]9[C@H](O)[C@@H](O)[C@@H](O[C@H]1[C@H](O)[C@H]2O)O[C@@H]9CO)O[C@@H]8CO)O[C@@H]7CO)O[C@@H]6CO)O[C@@H]5CO)O[C@@H]4CO)O[C@@H]3CO [gamma-Cyclodextrin] and CCC(CO)(CO)COCC(CC)(CO)CO [2,2'-(Oxydimethanediyl)bis(2-ethylpropane-1,3-diol)] cannot be ordered by CC50 at 24 h: over 30 µM for the first, over 90 µM for the second.

O=C=Nc1ccc(Cl)cc1 [4-Chlorophenyl isocyanate] and CCC(=O)Nc1ccc(O)cc1 [Parapropamol] cannot be ordered by CC50 at 24 h: over 90 µM for the first, over 50 µM for the second.

Compared with O=S1OCCO1 [Glycol sulfite], CN1CCC(N(Cc2cccs2)c2ccccc2)CC1 [Thenalidine] is lower in CC50 at 24 h: over 100 µM for the first, 27 µM for the second.

CCN(CC)CCOCCOC(=O)C1(c2ccccc2)CCCC1 [Carbetapentane] and CCCOCCOCCOCCO [2-[2-(2-Propoxyethoxy)ethoxy]ethanol] cannot be ordered by CC50 at 24 h: over 50 µM for the first, over 90 µM for the second.

Compared with C=C1/C(=C\C=C2/CCC[C@]3(C)[C@@H]([C@H](C)CCCC(C)(C)O)CC[C@@H]23)C[C@@H](O)C[C@@H]1O [Calcitriol], C=C1C[C@H]2[C@@H]3CCC4=CC(=O)C=C[C@]4(C)[C@@]3(F)[C@@H](O)C[C@]2(C)[C@@]1(O)C(=O)COC(C)=O [Fluprednidene acetate] is higher in CC50 at 24 h: 20.1 µM for the first, over 50 µM for the second.

First: C1CSCCS1 [1,4-Dithiane]
Second: CC(C(O)c1ccc(O)cc1)N1CCC(Cc2ccccc2)CC1 (stereo not shown) [Ifenprodil]
The CC50 at 24 h of the first is higher: over 90 µM for the first, 19.6 µM for the second.

First: O=c1[nH][nH]c2ccccc12 [3-Indazolinone]
Second: O=C(CCCN1CCN(c2ccc(F)cc2)CC1)NC1c2ccccc2CSc2ccccc21 (stereo not shown) [Monatepil]
The CC50 at 24 h of the first is higher: over 90 µM for the first, 11.9 µM for the second.

NCC(O)CC(=O)O (stereo not shown) [4-Amino-3-hydroxybutyric acid] and N=C(N)NN [Aminoguanidine hydrochloride] cannot be ordered by CC50 at 24 h: over 50 µM for the first, over 90 µM for the second.

First: Cc1nc2n(c(=O)c1CCN1CCC(c3noc4cc(F)ccc34)CC1)CCCC2O (stereo not shown) [Paliperidone]
Second: C[n+]1cc2c3c(ccc2c2ccc4cc5c(cc4c21)OCO5)OCO3 [Sanguinarine]
The CC50 at 24 h of the first is higher: over 50 µM for the first, 2.9 µM for the second.

OCCCCCCCCCCCCBr [12-Bromo-1-dodecanol] and CCO[Si](CCCN=C=O)(OCC)OCC [(3-Isocyanatopropyl)triethoxysilane] cannot be ordered by CC50 at 24 h: over 90 µM for the first, over 90 µM for the second.

Same assay, conditions: rat, gh3-tre-luc cells, AC50 (uM) modified / 1000, Tox21_110001=Tox21_111095; viability, 1 nM T3 present, 24 h

Nc1ccccc1C(=O)O [Anthranilic acid] showed a CC50 at 24 h of over 50 µM.

Same assay, conditions: rat, gh3-tre-luc cells, AC50 (uM) modified / 1000, Tox21_110001=Tox21_200703; viability, 1 nM T3 present, 24 h

For Nc1ccccc1C(=O)O [Anthranilic acid], the CC50 at 24 h was over 90 µM.

Same assay, conditions: rat, gh3-tre-luc cells, AC50 (uM) modified / 1000, Tox21_110001=Tox21_201878; viability, 1 nM T3 present, 24 h

Work on CCC(C)c1cc([N+](=O)[O-])cc([N+](=O)[O-])c1O (stereo not shown) [Dinoseb] yielded a CC50 at 24 h of over 90 µM.

Same assay, conditions: rat, gh3-tre-luc cells, AC50 (uM) modified / 1000, Tox21_110001=Tox21_202045; viability, 1 nM T3 present, 24 h

In the case of c1ccc2c(c1)Oc1ccccc1O2 [Dibenzo-p-dioxin], the CC50 at 24 h is reported as over 90 µM.

Same assay, conditions: rat, gh3-tre-luc cells, AC50 (uM) modified / 1000, Tox21_110001=Tox21_202334; viability, 1 nM T3 present, 24 h

For CCCCN(CCCC)N=O [N-Nitrosodibutylamine], the CC50 at 24 h was over 90 µM.

Same assay, conditions: rat, gh3-tre-luc cells, AC50 (uM) modified / 1000, Tox21_110001=Tox21_300421; viability, 1 nM T3 present, 24 h

Work on CCC(C)c1cc([N+](=O)[O-])cc([N+](=O)[O-])c1O (stereo not shown) [Dinoseb] yielded a CC50 at 24 h of 20.4 µM.

Same assay, conditions: rat, gh3-tre-luc cells, AC50 (uM) modified / 1000, Tox21_110001=Tox21_301125; viability, 1 nM T3 present, 24 h

CCOP(=O)(OCC)Oc1cc(C)nc(C(C)C)n1 [Diazoxon] gave a CC50 at 24 h of over 90 µM.

Same assay, conditions: rat, gh3-tre-luc cells, AC50 (uM) modified / 1000, Tox21_110001=Tox21_301361; viability, 1 nM T3 present, 24 h

For CNC(=O)Oc1ccccc1C(C)C [Isoprocarb], the CC50 at 24 h was over 90 µM.

Same assay, conditions: rat, gh3-tre-luc cells, AC50 (uM) modified / 1000, Tox21_110001=Tox21_301568; viability, 1 nM T3 present, 24 h

CCC1COC(Cn2cncn2)(c2ccc(Cl)cc2Cl)O1 (stereo not shown) [Etaconazole] showed a CC50 at 24 h of over 90 µM.
